# Measured values: publication PMC11378702 (RSC Advances, 2024)
# Read-outs that look alike come from different tables or passages of the source.
# Key:
# EGFR^T790M = EGFR^T790M (Homo sapiens, UniProt P00533, T790M); assay: biochemical; type: biochemical
# H1975 = assay: MTT anti-proliferative assay, H1975 cells; type: cell-based; details: Homo sapiens, NCI-H1975, 48 h, read-out: IC50 (μM) H1975
# A549 = assay: cells; type: cell-based; details: Homo sapiens, A549, 48 h, read-out: IC50 (μM) A549
# A431 = assay: MTT anti-proliferative assay, A431 cells; type: cell-based, human; details: read-out: IC50 (μM) A431
# EGFR^WT = EGFR^WT (Homo sapiens, UniProt P00533); assay: biochemical
# Chain of EGFR^WT (P00533 25-1210): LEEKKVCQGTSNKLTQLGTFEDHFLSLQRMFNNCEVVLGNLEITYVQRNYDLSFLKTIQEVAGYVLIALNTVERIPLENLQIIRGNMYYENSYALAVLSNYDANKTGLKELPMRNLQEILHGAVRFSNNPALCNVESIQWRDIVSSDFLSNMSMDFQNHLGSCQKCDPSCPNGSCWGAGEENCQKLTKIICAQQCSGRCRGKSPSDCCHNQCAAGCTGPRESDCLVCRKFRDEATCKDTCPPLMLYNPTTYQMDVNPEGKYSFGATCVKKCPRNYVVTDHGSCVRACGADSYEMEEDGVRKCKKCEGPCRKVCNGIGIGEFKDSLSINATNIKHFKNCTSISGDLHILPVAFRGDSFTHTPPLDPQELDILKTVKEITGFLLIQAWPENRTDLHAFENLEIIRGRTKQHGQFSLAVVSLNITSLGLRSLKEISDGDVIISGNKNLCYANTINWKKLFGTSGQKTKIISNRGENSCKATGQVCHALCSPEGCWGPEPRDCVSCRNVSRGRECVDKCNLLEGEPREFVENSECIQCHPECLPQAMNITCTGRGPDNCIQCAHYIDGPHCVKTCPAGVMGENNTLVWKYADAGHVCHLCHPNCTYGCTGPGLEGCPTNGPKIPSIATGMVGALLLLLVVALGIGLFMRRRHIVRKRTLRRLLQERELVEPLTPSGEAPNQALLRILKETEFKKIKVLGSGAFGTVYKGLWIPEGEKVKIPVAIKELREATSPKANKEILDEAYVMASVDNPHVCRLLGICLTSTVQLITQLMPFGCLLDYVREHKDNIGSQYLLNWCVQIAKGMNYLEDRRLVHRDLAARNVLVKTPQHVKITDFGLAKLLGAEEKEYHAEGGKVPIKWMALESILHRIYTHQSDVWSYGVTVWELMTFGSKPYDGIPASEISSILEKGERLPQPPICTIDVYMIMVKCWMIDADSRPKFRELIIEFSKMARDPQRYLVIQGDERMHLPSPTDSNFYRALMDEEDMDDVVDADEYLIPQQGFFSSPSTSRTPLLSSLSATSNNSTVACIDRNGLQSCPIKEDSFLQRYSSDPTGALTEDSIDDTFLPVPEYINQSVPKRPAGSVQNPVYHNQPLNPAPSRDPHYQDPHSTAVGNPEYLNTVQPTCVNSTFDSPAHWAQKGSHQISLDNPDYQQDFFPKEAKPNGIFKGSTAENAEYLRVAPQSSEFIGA
# Chain of EGFR^T790M (P00533 25-1210 T790M): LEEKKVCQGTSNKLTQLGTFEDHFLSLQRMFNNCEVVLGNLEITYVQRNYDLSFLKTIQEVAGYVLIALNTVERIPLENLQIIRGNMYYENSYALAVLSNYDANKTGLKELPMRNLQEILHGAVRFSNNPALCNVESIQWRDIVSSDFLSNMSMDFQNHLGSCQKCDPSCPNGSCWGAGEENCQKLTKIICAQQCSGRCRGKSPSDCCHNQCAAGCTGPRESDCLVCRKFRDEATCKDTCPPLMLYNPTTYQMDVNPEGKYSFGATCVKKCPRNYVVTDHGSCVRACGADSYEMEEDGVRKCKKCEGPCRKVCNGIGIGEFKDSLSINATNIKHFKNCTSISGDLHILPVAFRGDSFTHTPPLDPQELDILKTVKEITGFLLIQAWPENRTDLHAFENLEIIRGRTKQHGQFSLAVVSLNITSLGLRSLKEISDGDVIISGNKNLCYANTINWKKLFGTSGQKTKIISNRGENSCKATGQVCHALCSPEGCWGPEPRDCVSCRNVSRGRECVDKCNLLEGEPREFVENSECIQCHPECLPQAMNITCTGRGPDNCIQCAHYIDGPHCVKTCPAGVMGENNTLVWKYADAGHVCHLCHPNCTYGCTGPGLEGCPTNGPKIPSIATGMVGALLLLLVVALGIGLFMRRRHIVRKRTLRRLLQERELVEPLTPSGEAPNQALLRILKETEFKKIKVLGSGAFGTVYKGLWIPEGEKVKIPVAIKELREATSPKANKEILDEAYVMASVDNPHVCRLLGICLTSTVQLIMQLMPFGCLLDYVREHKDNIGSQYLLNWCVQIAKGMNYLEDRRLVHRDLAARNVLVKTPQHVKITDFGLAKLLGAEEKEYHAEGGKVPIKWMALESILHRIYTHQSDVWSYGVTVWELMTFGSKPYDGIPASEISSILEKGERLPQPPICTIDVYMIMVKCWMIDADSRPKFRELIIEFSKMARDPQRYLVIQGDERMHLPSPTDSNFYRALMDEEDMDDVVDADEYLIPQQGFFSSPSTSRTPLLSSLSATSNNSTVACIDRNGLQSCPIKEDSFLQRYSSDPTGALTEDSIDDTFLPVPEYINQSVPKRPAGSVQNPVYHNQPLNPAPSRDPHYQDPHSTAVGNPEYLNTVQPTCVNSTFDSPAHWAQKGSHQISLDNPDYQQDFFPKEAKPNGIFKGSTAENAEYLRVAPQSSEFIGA
IC50 (EGFR^T790M) [µM],IC50 (H1975) [µM],IC50 (A549) [µM],IC50 (EGFR^WT) [µM],fold more potent than gefitinib (EGFR^T790M IC50) (EGFR^T790M; relative to gefitinib) [fold],"IC50 (A431; MTT, two-day incubation, mean ± SD, n = 3) [µM]",Compound,"IC50 (A431; Homo sapiens, A-431, 48 h) [µM]"
0.0354 ± 0.0086,6.12 ± 0.24,5.15 ± 0.3,0.0145 ± 0.0075,,,"CCOC(=O)C(=NNc1ccc(S(=O)(=O)Nc2ncccn2)cc1)C(=O)OCC [Compound 12, Diethyl 2-(2-(4-(N-(pyrimidin-2-yl)sulfamoyl)phenyl)hydrazineylidene)malonate]",
,12.9 ± 1.23,17.5 ± 2.34,,,,"C#Cc1cccc(Nc2ncnc3cc(OCCOC)c(OCCOC)cc23)c1 [Erlotinib, reference compound]",
0.0608 ± 0.0062,15.8 ± 2.48,19.7 ± 0.34,0.0315 ± 0.0058,,,"N#CC(=NNc1ccc(S(=O)(=O)Nc2ncccn2)cc1)C(N)=S [Compound 10, 2-Cyano-(2-(4-(N-(pyrimidin-2-yl)sulfamoyl)phenyl)hydrazono)ethanethioamide]",
0.0668 ± 0.0104,15.7 ± 0.21,16.6 ± 0.92,0.0526 ± 0.0093,,,"CC(=O)C(=NNc1ccc(S(=O)(=O)Nc2ncccn2)cc1)C(C)=O [Compound 6, 4-(2-(2,4-Dioxopentan-3-ylidene)hydrazineyl)-N-(pyrimidin-2-yl)benzenesulfonamide]",
0.0096 ± 0.0032,2.31 ± 0.23,4.78 ± 0.12,0.0232 ± 0.0001,38,4.12 ± 0.54,"CC(=O)C(=NNc1ccc(S(=O)(=O)Nc2ncccn2)cc1)C(=O)c1ccccc1 [Compound 8, 4-[2-(1-Benzoyl-2-oxopropylidene)hydrazino]-N-pyrimidin-2-ylbenzenesulfonamide]",
,0.93 ± 0.09,,,,,"C=CC(=O)Nc1cc(Nc2nccc(-c3cn(C)c4ccccc34)n2)c(OC)cc1N(C)CCN(C)C [Osimertinib, reference compound]",
0.0243 ± 0.0034,4.59 ± 0.43,7.56 ± 0.27,0.0153 ± 0.0031,,,"CSc1nc(NC(=O)C(=NNc2ccc(S(=O)(=O)Nc3ncccn3)cc2)C(C)=O)cc(N)c1C#N [Compound 14, N-(4-Amino-5-cyano-6-(methylthio)pyridin-2-yl)-3-oxo-2-{[4-(pyrimidin-2-ylsulfamoyl)phenyl]hydrazono}butanamide]",
0.0936 ± 0.0085,20.1 ± 2.21,19.2 ± 3.09,0.0492 ± 0.0067,,,"CCC(=O)C(=NNc1ccc(S(=O)(=O)Nc2ncccn2)cc1)C(C)=O [Compound 5, 4-(2-(2,4-Dioxohexan-3-ylidene)hydrazineyl)-N-(pyrimidin-2-yl)benzenesulfonamide]",
0.215 ± 0.0152,17.1 ± 1.62,15.5 ± 1.34,0.0417 ± 0.0082,,,"CSC1=NC(=N)C(=NNc2ccc(S(=O)(=O)Nc3ncccn3)cc2)C(N)=C1C#N [Compound 13, 4-{-2-[4-Amino-5-cyano-2-imino-6-(methylthio)pyridin-3(2H)-ylidene]hydrazino}-N-pyrimidin-2-ylbenzenesulfonamide]",
0.0171 ± 0.0001,13.1 ± 0.67,15 ± 1.27,0.0435 ± 0.0002,,,"CCOC(=O)/C(C#N)=N\Nc1ccc(S(=O)(=O)Nc2ncccn2)cc1 [Compound 9, Ethyl (Z)-2-cyano-2-(2-(4-(N-(pyrimidin-2-yl)sulfamoyl)phenyl)hydrazineylidene)acetate]",

Compound,IC50 (EGFR^T790M) [µM],IC50 (H1975) [µM],IC50 (A549) [µM],IC50 (EGFR^WT) [µM],fold more potent than gefitinib (EGFR^T790M IC50) (EGFR^T790M; relative to gefitinib) [fold],"IC50 (A431; MTT, two-day incubation, mean ± SD, n = 3) [µM]","IC50 (A431; Homo sapiens, A-431, 48 h) [µM]"
"N#CC(=NNc1ccc(S(=O)(=O)Nc2ncccn2)cc1)C(N)=C(C#N)C#N [Compound 11, 2-Amino-3,3-dicyano-N-(4-(N-(pyrimidin-2-yl)sulfamoyl)phenyl)acrylohydrazonoyl cyanide]",0.133 ± 0.0162,14.1 ± 1.23,13.6 ± 1.32,0.0477 ± 0.0114,,,15.1 ± 0.58
